This assay deals with HBsAg secretion in HepG2.2.15 cells. Put plainly: HBsAg assay (chemiluminescence immunoassay of secreted HBsAg in culture supernatant). Format: cell-based, HBV. On the procedure:
HepG2.2.15 cells (Acs et al. Proc Natl Acad Sci USA, 84, (1987), 4641-4), a constitutively HBV-expressing cell line were cultured in DMEM+Glutamax-I medium (Invitrogen, Carlsbad, Calif., USA), supplemented with 10% fetal bovine serum (Invitrogen) and G418 (Invitrogen) at a final concentration of 200 mg/L and maintained in 5% CO2 at 37° C.
HepG2.2.15 cells were seeded in duplicate into white, 96-well plates at 1.5×10^4 cells/well. The cells were treated with a three-fold serial dilution series of the compounds in DMSO. The final DMSO concentration in all wells was 1% and DMSO was used as no drug control.
The HBsAg chemiluminescence immunoassay (CLIA) kit (Autobio Diagnostics Co., Zhengzhou, China, Catalog number: CL0310-2) was used to measure the levels of secreted HBV antigens semi-quantitatively. For the detection 50 μL/well culture supernatant was used and HBsAg was quantified using HBsAg chemiluminescence immunoassay (CLIA) kit (Autobio Diagnostics Co., Zhengzhou, China, Catalog number: CL0310-2), 50 μL of the supernatant was transferred to the CLIA assay plate and 50 μL of enzyme conjugate reagent was added into each well. The plates were sealed and gently agitated for 1 hour at room temperature. The supernatant-enzyme-mixture was discarded and wells were washed 6 times with 300 μL of PBS. The residual liquid was removed by plating the CLIA plate […] on absorbent tissue paper. 25 μL of substrates A and B were added to each well. Luminance was measured using a luminometer (Mithras LB 940 Multimode Microplate Reader) after 10 minutes incubation. Dose-response curves were generated and the IC50 value was extrapolated by using the E-WorkBook Suite (ID Business Solutions Ltd., Guildford, UK). The IC50 was defined as the compound concentration (or conditioned media log dilution) at which HBsAg secretion was reduced by 50% compared to the no drug control.
The compounds according to formula I were tested for their capacity to inhibit HBsAg as described herein.

Where [1] appears, read: Hepatitis B virus, HepG2.2.15, HepG2.2.15 cells, concentration at which HBsAg secretion was reduced by 50% compared to the no drug control, read-out: IC50 (HBsAg assay).
Setting [2] is: HepG2.2.15 cells, concentration at which HBsAg secretion was reduced by 50% compared to the no drug control, read-out: IC50 (HBsAg assay).

For 25 molecules, IC50 results are on record in patent US9845322B2 (Hoffmann-La Roche Inc., priority 2016, dated 2017).

In general, IC50 refers to the concentration needed to halve the response being measured.

Where two headings read alike, the source gives them in different places.

Consider `COc1cc(F)c(Cl)c(N2CCc3nc(-c4ncccn4)ncc3C2C)c1Cl` (single isomer, unassigned; (+)) [Example 123, (+)-6-(2,6-dichloro-3-fluoro-5-methoxy-phenyl)-5-methyl-2-pyrimidin-2-yl-7,8-dihydro-5H-pyrido[4,3-d]pyrimidine], for which the IC50 under setting [1] is 1140 nM.

As to `COc1c(Cl)c(F)cc(N2CCc3nc(-c4ncccn4)ncc3C2C)c1Cl` (single isomer, unassigned; (+)) [Example 124, (+)-6-(2,4-dichloro-5-fluoro-3-methoxy-phenyl)-5-methyl-2-pyrimidin-2-yl-7,8-dihydro-5H-pyrido[4,3-d]pyrimidine], under setting [1], the IC50 came out at 1250 nM.

Take `COc1cc(N2CCc3nc(-c4ncccn4)ncc3C2C)c(Cl)c(F)c1Cl` (single isomer, unassigned; (+)) [Example 125, (+)-6-(2,4-dichloro-3-fluoro-5-methoxy-phenyl)-5-methyl-2-pyrimidin-2-yl-7,8-dihydro-5H-pyrido[4,3-d]pyrimidine]: the IC50 under setting [1] was determined as 1120 nM.

Turning to `COc1cc(F)nc(N2CCc3nc(-c4ncccn4)ncc3C2C)c1` (single isomer, unassigned; (+)) [Example 139, (+)-6-(6-fluoro-4-methoxy-2-pyridyl)-5-methyl-2-pyrimidin-2-yl-7,8-dihydro-5H-pyrido[4,3-d]pyrimidine], the IC50 under setting [2] turned out to be 1590 nM.

For the molecule `CC1c2cnc(-c3ncccn3)nc2CCN1c1cc(N2CCCC2)cc(F)n1` (single isomer, unassigned; (+)) [Example 201, (+)-6-(6-fluoro-4-pyrrolidin-1-yl-2-pyridyl)-5-methyl-2-pyrimidin-2-yl-7,8-dihydro-5H-pyrido[4,3-d]pyrimidine], the IC50 under setting [2] stood at 124 nM.

Take `CC1c2cnc(-c3ncccn3)nc2CCN1c1cc(F)cc(N(C)C)n1` (single isomer, unassigned; (+)) [Example 204, (+)-4-fluoro-N,N-dimethyl-6-[5-methyl-2-pyrimidin-2-yl-7,8-dihydro-5H-pyrido[4,3-d]pyrimidin-6-yl]pyridin-2-amine]: the IC50 under setting [2] was 113 nM.

With `CC1c2cnc(-c3ncccn3)nc2CCN1c1cc(N(C)C)cc(F)n1` (single isomer, unassigned; (+)) [Example 206, (+)-2-fluoro-N,N-dimethyl-6-[5-methyl-2-pyrimidin-2-yl-7,8-dihydro-5H-pyrido[4,3-d]pyrimidin-6-yl]pyridin-4-amine], the IC50 under setting [2] was 285 nM.

As to `CC1c2cnc(-c3ccccn3)nc2CCN1c1ccc([N+](=O)[O-])cc1` (single isomer, unassigned; (-)) [Example 3, (−)-5-methyl-6-(4-nitrophenyl)-2-(2-pyridyl)-7,8-dihydro-5H-pyrido[4,3-d]pyrimidine], the IC50 under setting [2] stood at 115 nM.

Take `COc1cc(N2CCc3nc(-c4ccccn4)ncc3C2C)cc(F)c1F` (single isomer, unassigned; (-)) [Example 7, (−)-6-(3,4-difluoro-5-methoxy-phenyl)-5-methyl-2-(2-pyridyl)-7,8-dihydro-5H-pyrido[4,3-d]pyrimidine]: the IC50 under setting [2] was 12 nM.

For `CCC1c2cnc(-c3ccccn3)nc2CCN1c1cc(F)c(F)c(OC)c1` (single isomer, unassigned; (-)) [Example 11, (−)-6-(3,4-difluoro-5-methoxy-phenyl)-5-ethyl-2-(2-pyridyl)-7,8-dihydro-5H-pyrido[4,3-d]pyrimidine], the IC50 under setting [2] was 85 nM.

Regarding `CCCC1c2cnc(-c3ccccn3)nc2CCN1c1cc(F)c(F)c(OC)c1` (single isomer, unassigned; (-)) [Example 14, (−)-6-(3,4-difluoro-5-methoxy-phenyl)-5-propyl-2-(2-pyridyl)-7,8-dihydro-5H-pyrido[4,3-d]pyrimidine], the IC50 under setting [2] came to 2970 nM.

As to `COCCOc1cc(N2CCc3nc(-c4ccccn4)ncc3C2C)cc(F)c1F` (single isomer, unassigned; (-)) [Example 21, (−)-6-[3,4-difluoro-5-(2-methoxyethoxy)phenyl]-5-methyl-2-(2-pyridyl)-7,8-dihydro-5H-pyrido[4,3-d]pyrimidine], the IC50 under setting [2] came out at 50 nM.

On to `CC1c2cnc(-c3ncccn3)nc2CCN1c1cc(O)c(F)c(F)c1` (single isomer, unassigned; (-)) [Example 45, (−)-2,3-difluoro-5-(5-methyl-2-pyrimidin-2-yl-7,8-dihydro-5H-pyrido[4,3-d]pyrimidin-6-yl)phenol], for which the IC50 under setting [2] turned out to be 176 nM.

For the molecule `CC1c2cnc(-c3ncccn3)nc2CCN1c1cc(F)c(F)c(OCCCS(C)(=O)=O)c1` (single isomer, unassigned; (-)) [Example 49, (−)-6-[3,4-difluoro-5-(3-methylsulfonylpropoxy)phenyl]-5-methyl-2-pyrimidin-2-yl-7,8-dihydro-5H-pyrido[4,3-d]pyrimidine], under setting [2], the IC50 worked out at 34 nM.

As to `CC1c2cnc(-c3ncccn3)nc2CCN1c1cc(F)c(F)c(OCCCCCCN)c1` (single isomer, unassigned; (-)) [Example 60, (−)-6-[2,3-difluoro-5-(5-methyl-2-pyrimidin-2-yl-7,8-dihydro-5H-pyrido[4,3-d]pyrimidin-6-yl)phenoxy]hexan-1-amine], the IC50 under setting [2] was found to be 22 nM.

On to `CC1c2cnc(-c3ncccn3)nc2CCN1c1cc(F)c(F)c(OCC(N)=O)c1` (single isomer, unassigned; (-)) [Example 68, (−)-2-[2,3-difluoro-5-[5-methyl-2-pyrimidin-2-yl-7,8-dihydro-5H-pyrido[4,3-d]pyrimidin-6-yl]phenoxy]acetamide], for which, under setting [2], the IC50 came out at 74 nM.

As to `COc1cc(F)c(Cl)c(N2CCc3nc(-c4ncccn4)ncc3C2C)c1` (single isomer, unassigned; (-)) [Example 130, (−)-6-(2-chloro-3-fluoro-5-methoxy-phenyl)-5-methyl-2-pyrimidin-2-yl-7,8-dihydro-5H-pyrido[4,3-d]pyrimidine], the IC50 under setting [1] was 679 nM.

Take `COc1cc(F)cc(N2CCc3nc(-c4ncccn4)ncc3C2C)c1Cl` (single isomer, unassigned; (-)) [Example 131, (−)-6-(2-chloro-5-fluoro-3-methoxy-phenyl)-5-methyl-2-pyrimidin-2-yl-7,8-dihydro-5H-pyrido[4,3-d]pyrimidine]: the 50% inhibitory concentration (IC50) under setting [1] was 2 nM.

Regarding `COc1cc(F)nc(N2CCc3nc(-c4ncccn4)ncc3C2C)c1` (single isomer, unassigned; (-)) [Example 138, (−)-6-(6-fluoro-4-methoxy-2-pyridyl)-5-methyl-2-pyrimidin-2-yl-7,8-dihydro-5H-pyrido[4,3-d]pyrimidine], the IC50 under setting [2] came out at 11 nM.

As for `COc1cc(N2CCc3nc(-c4ncccn4)ncc3C2C)nc(F)c1Cl` (single isomer, unassigned; (-)) [Example 146, (−)-6-(5-chloro-6-fluoro-4-methoxy-2-pyridyl)-5-methyl-2-pyrimidin-2-yl-7,8-dihydro-5H-pyrido[4,3-d]pyrimidine], under setting [1], the IC50 worked out at 2 nM.

For `COc1cc(F)nc(N2CCc3nc(-c4ncccn4)ncc3C2C)c1Cl` (single isomer, unassigned; (-)) [Example 147, (−)-6-(3-chloro-6-fluoro-4-methoxy-2-pyridyl)-5-methyl-2-pyrimidin-2-yl-7,8-dihydro-5H-pyrido[4,3-d]pyrimidine], under setting [1], the IC50 worked out at 21 nM.

With `CC1c2cnc(-c3ncccn3)nc2CCN1c1cc(OCCCCCCC(=O)O)cc(F)n1` (single isomer, unassigned; (-)) [Example 155, (−)-7-[[2-fluoro-6-[5-methyl-2-pyrimidin-2-yl-7,8-dihydro-5H-pyrido[4,3-d]pyrimidin-6-yl]-4-pyridyl]oxy]heptanoic acid], the IC50 under setting [1] was 12 nM.

With `CC1c2cnc(-c3ncccn3)nc2CCN1c1cc(OCCCCCCC(N)=O)cc(F)n1` (single isomer, unassigned; (-)) [Example 156, (−)-7-[[2-fluoro-6-[5-methyl-2-pyrimidin-2-yl-7,8-dihydro-5H-pyrido[4,3-d]pyrimidin-6-yl]-4-pyridyl]oxy]heptanamide], the IC50 under setting [1] was 6 nM.

`CC1c2cnc(-c3ncccn3)nc2CCN1c1cc(OCCCCC(=O)O)cc(F)n1` (single isomer, unassigned; (-)) [Example 157, (−)-5-[[2-fluoro-6-[5-methyl-2-pyrimidin-2-yl-7,8-dihydro-5H-pyrido[4,3-d]pyrimidin-6-yl]-4-pyridyl]oxy]pentanoic acid]: the 50% inhibitory concentration (IC50) under setting [1] is 47 nM.

In the case of `CC1c2cnc(-c3ncccn3)nc2CCN1c1cc(OCCCCC(N)=O)cc(F)n1` (single isomer, unassigned; (-)) [Example 158, (−)-5-[[2-fluoro-6-[5-methyl-2-pyrimidin-2-yl-7,8-dihydro-5H-pyrido[4,3-d]pyrimidin-6-yl]-4-pyridyl]oxy]pentanamide], the IC50 (Hepatitis B virus, HepG2.2.15, read-out: IC50 (HBsAg assay)) was determined as 16 nM.
